By IC50 is commonly meant the point on the concentration scale where inhibition reaches its midpoint. The Kd is the equilibrium constant for the complex coming apart. Low readings indicate a tighter complex, high ones a looser complex. The Ki is a dissociation constant, usually derived from enzyme kinetics or from competition with a known ligand. Read a high Ki as a looser hold on the target.

Experimental findings from PMC8769072, “Proteome‐scale mapping of binding sites in the unstructured regions of the human proteome” (Molecular Systems Biology, 2022) are described below.

One assay has as its target T1, CLTC (Homo sapiens, UniProt Q00610).
T1 construct: Q00610; CLTC; Clathrin propeller; 364; pETM33; Genescript; 6-His-GST; made in house; host or cells: Escherichia coli BL21(DE3) gold (stated for the bait preparation)
T1 sequence (Q00610 1-364): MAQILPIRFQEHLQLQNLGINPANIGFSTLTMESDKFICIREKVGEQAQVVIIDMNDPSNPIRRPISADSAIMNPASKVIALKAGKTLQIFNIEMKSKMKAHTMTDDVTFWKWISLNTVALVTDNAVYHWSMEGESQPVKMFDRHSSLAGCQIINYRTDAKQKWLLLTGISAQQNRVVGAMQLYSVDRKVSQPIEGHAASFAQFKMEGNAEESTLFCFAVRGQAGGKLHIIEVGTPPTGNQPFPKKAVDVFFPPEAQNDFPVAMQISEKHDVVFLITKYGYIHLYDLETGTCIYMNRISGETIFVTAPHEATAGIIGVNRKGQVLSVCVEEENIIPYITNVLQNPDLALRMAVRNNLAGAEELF
Nature of the assay: FP competition, CLTC. Format: binding. The settings on record: competitive FP assay.

For assay [1], the target named is T2, KPNA4 ARM (Homo sapiens, UniProt O00629).
T2 construct: O00629; KPNA4; Arm; 68; 487; pETM33/pETM41; Genescript; made in house; host or cells: bacteria (E. coli BL21(DE3) gold is named only for the phage-selection preparations)
Nature of the assay: FP saturation (direct binding of FITC probes), KPNA4 ARM.

The target in the next assay is T3, KPNB1 HEAT (Homo sapiens, UniProt Q14974).
T3 construct: Q14974; KPNB1; HEAT; 485; pETM41; Genescript; 6-His-MBP (from vector pETM41) (cleaved yes); made in house; host or cells: bacteria (E. coli BL21(DE3) gold is named only for the phage-selection preparations)
Nature of the assay: FP saturation (direct binding of FITC probe), KPNB1 HEAT. The settings on record: direct binding of FITC-labeled probe, 10 nM in master mix, 50 mM KPO4 pH 7.5.

Another assay has as its target T4, TLN1 PTB (Homo sapiens, UniProt Q9Y490).
T4 construct: Q9Y490; TLN1; PTB; 309; pHH0103; Sidhu Lab (PMID: 33438817); made in house; host or cells: bacteria (E. coli BL21(DE3) gold is named only for the phage-selection preparations)
Nature of the assay: FP saturation (direct binding of FITC probe), TLN1 PTB. The settings on record: Fig 3C; direct binding of FITC-labeled probe.

Assay [2] addresses T5, SFN 14-3-3 (Homo sapiens, UniProt P31947).
T5 sequence (P31947 1-236): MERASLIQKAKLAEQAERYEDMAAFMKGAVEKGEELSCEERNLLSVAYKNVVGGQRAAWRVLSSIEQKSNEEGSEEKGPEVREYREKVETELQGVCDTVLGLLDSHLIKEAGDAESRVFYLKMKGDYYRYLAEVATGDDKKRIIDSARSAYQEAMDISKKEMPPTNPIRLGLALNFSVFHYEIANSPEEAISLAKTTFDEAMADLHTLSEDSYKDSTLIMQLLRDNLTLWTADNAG
Nature of the assay: FP saturation (direct binding of FITC probe), SFN 14-3-3. The note with it: direct binding of FITC-labeled phospho-RAF1 probe. Also noted: P31947; SFN; 14-3-3; 236; pHH0103; Sidhu Lab (PMID: 33438817); made in house; host or cells: bacteria (E. coli BL21(DE3) gold is named only for the phage-selection preparations).

Assay [3] addresses T5, SFN 14-3-3. Nature of the assay: FP competition, SFN 14-3-3.
Assay [4] concerns the target T2, KPNA4 ARM. Nature of the assay: FP competition, KPNA4 ARM major pocket (FITC-Myc probe). Format: binding. The source says:
Like other importins, KPNA4 has two distinct NLS‐binding pockets on the surface of an armadillo (ARM) repeat fold (major pocket, ARM 2–4; minor pocket, ARM 6–8; Fig 5B) (Smith et al, [2018]). Bipartite NLSs are usually 17–19 amino acids long and engage both pockets. Monopartite NLSs are short basic stretches, divided into five classes (Kosugi et al, [2009]): class I KR[KR]R or K[KR]RK, class II [PR]xxKR[^DE][KR] (where ^ indicates “not”), class III KRx[WFY]xxAF, class IV [RP]xxKR[KR][^DE], and class V LGKR[KR][WFY]. The class I and class II motifs preferentially interact with the major pocket (Kosugi et al, [2009]). In contrast, class III and class IV NLSs preferentially bind to the minor pocket. Using KPNA4 as a bait against the HD2 P8 library we identified 33 peptides found in 32 proteins. Of the 26 proteins for which information was available, 22 proteins were annotated as having nuclear or nucleolar localization in the UniProt database. To gain additional information we combined the data generated for KPNA4 by screening against the complete P8 HD2 library, with the results generated using two relevant sublibraries (the cytoplasmic and nuclear, and nuclear sublibraries) resulting in a set of 92 peptides containing NLS‐like sequences found in 76 proteins. Using these peptides we could generate consensus motifs that matched four of the previously reported NLS classes (Fig 5A; class I‐IV). […] Three peptides bound only to the major pocket. Eight peptides with class III motif and one KRxH‐containing peptide only bound to the minor pocket. Five peptides outcompeted both probe peptides, which may be explained by the amino acid sequence matching both class II and class III motifs (e.g., 1135‐ PSPKRKL ‐1139 in ZNF532; Fig 5), and possibly by cross specificity of the two binding pockets.

The test system of another assay is HEK293 cells. Nature of the assay: GFP-based NLS sensor (tri-GFP) cellular localization. It is filed as cell-based, human. The note with it: HEK293 cells transiently transfected, fixed 36 h after transfection, epifluorescence microscopy, DAPI; n = 3 independent experiments. The source says:
For the cell‐based NLS experiment, a pEGFP‐C1 vector was modified to contain two additional eGFP genes spaced by a linker region on the 3′ end of the vector's multiple cloning site (Appendix Fig S8). The modified vector is here called a “tri‐GFP vector”. DNA strands for tandem peptides to be tested for NLS function were constructed by PCR using overlapping primers that coded for the peptide sequences and also contained overlapping regions for the MCS in the tri‐GFP vector. The PCR products were then cloned into the tri‐GFP vector using Gibson Assembly® (New England Biolabs) following the manufacturer's recommendations. Obtained clones were verified by Sanger sequencing.
HEK293 cells were obtained from Sigma (Cat. 85120602) and cultured using DMEM with GlutaMAX™ Supplement (Gibco™) supplemented with 10% FBS (Gibco™) and Non‐Essential Amino Acids Solution (NEAA, Gibco™). Cultures were maintained at 37°C with 5% CO2 in humidified chambers and were routinely checked for mycoplasma contamination. For NLS experiments, cells were transfected using FuGENE® HD (Promega) according to manufacturer's instructions and using highly purified DNA samples. • Cells were then grown in eight‐well chamber slides. […]

In another assay the target is T6, MDM2 SWIB (Homo sapiens, UniProt Q00987).
T6 construct: Q00987; MDM2; SWIB; 17; 125; pETM33; Genescript; His-GST (cleaved yes); made in house; host or cells: bacteria (E. coli BL21(DE3) gold is named only for the phage-selection preparations)
Nature of the assay: FP competition, MDM2 SWIB. It is filed as binding.

Where a SMILES comes first, the peptide text is derived from it. Where no end group is shown, it is not given here. [ ]: non-standard residue; d: D form. The star is where a group is joined. FITC = O=C1OC2(c3ccc(O)cc3Oc3cc(O)ccc32)c2ccc(NC(=S)*)cc21; pT = C[C@@H](OP(=O)(O)O)[C@H](N)C(=O)O; pS = N[C@@H](COP(=O)(O)O)C(=O)O

Turning to `CC[C@H](C)[C@H](NC(=O)[C@H](CC(C)C)NC(=O)[C@@H]1CCCN1C(=O)[C@H](CC(C)C)NC(=O)[C@H](CC(=O)O)NC(=O)[C@@H](NC(=O)[C@H](CC(C)C)NC(C)=O)[C@@H](C)CC)C(=O)N[C@@H](CC(=O)O)C(=O)N[C@@H](Cc1ccccc1)C(=O)N[C@@H](CS)C(=O)N[C@@H](CC(=O)O)C(=O)N[C@H](C(=O)N1CCC[C@H]1C(=O)N[C@@H](CCC(=O)O)C(=O)N[C@@H](C)C(=O)N[C@@H](Cc1c[nH]cn1)C(=O)N[C@@H](Cc1ccc(O)cc1)C(=O)O)[C@@H](C)OP(=O)(O)O` [GTSE1 pT] (Ac-LIDLPLIDFCD[pT]PEAHY-OH), on CLTC, the IC50 came out at 87 µM.
The molecule `CC[C@H](C)[C@H](NC(=O)[C@H](C)NC(=O)[C@H](CCCNC(=N)N)NC(=O)CNC(=O)[C@@H](NC(=O)[C@H](CCCNC(=N)N)NC(=O)CNC(=O)[C@H](CCC(=O)O)NC(=O)[C@H](CCSC)NC(=O)[C@H](CCSC)NC(=O)[C@H](CC(=O)O)NC(=O)[C@H](Cc1ccc(O)cc1)NC(=O)[C@@H](NC(=O)[C@H](CCCNC(=N)N)NC(=O)[C@H](CCCCN)NC(=O)[C@@H]1CCCN1C(=S)Nc1ccc2c(c1)C(=O)OC21c2ccc(O)cc2Oc2cc(O)ccc21)[C@@H](C)O)C(C)C)C(=O)O` [NCOR2 FITC] ({FITC}-PKRTYDMMEGRVGRAI-OH) yielded a Kd on KPNA4 ARM [1] (Appendix Fig S7, saturation curves of FITC-labeled probes with KPNA4 ARM) of 228 ± 11 nM.
`CC(C)[C@H](NC(=O)[C@H](Cc1ccccc1)NC(=O)[C@@H](NC(=O)[C@H](C)NC(=O)[C@@H](NC(=S)Nc1ccc2c(c1)C(=O)OC21c2ccc(O)cc2Oc2cc(O)ccc21)C(C)C)[C@@H](C)O)C(=O)N[C@@H](Cc1ccccc1)C(=O)NCC(=O)N[C@@H](CCC(N)=O)C(=O)N[C@@H](CO)C(=O)N[C@@H](CO)C(N)=O` [NUP153_FITC] ({FITC}-VATFVFGQSS-NH2) registered a Kd on KPNB1 HEAT of 106 µM.
`CC(C)C[C@H](NC(=O)[C@@H]1CCCN1C(=O)[C@H](CO)NC(=O)[C@H](Cc1ccc(O)cc1)NC(=O)[C@@H](NC(=O)[C@H](Cc1c[nH]c2ccccc12)NC(=O)[C@H](CO)NC(=O)[C@H](CCCNC(=N)N)NC(=O)[C@H](CCC(=O)O)NC(=O)[C@H](CC(=O)O)NC(=O)[C@@H](NC(=O)[C@@H]1CCCN1C(=O)[C@H](Cc1ccccc1)NC(=S)Nc1ccc2c(c1)C(=O)OC21c2ccc(O)cc2Oc2cc(O)ccc21)[C@@H](C)O)C(C)C)C(=O)N[C@@H](Cc1c[nH]cn1)C(=O)N[C@@H](Cc1ccc(O)cc1)C(=O)N[C@@H](CO)C(N)=O` [PIP5K1C_FITC] ({FITC}-FPTDERSWVYSPLHYS-NH2): at TLN1 PTB, binding was put at a Kd of 150 ± 40 nM.
With `CC(C)[C@H](NC(=O)[C@H](CC(N)=O)NC(=O)[C@@H]1CCCN1C(=O)[C@@H](NC(=O)[C@H](COP(=O)(O)O)NC(=O)[C@@H](NC(=O)[C@H](CO)NC(=O)[C@H](CCCNC(=N)N)NC(=O)[C@H](CCC(N)=O)NC(=S)Nc1ccc2c(c1)C(=O)OC21c2ccc(O)cc2Oc2cc(O)ccc21)[C@@H](C)O)[C@@H](C)O)C(=O)N[C@@H](Cc1c[nH]cn1)C(N)=O` [RAF_FITC] ({FITC}-QRST[pS]TPNVH-NH2), on SFN 14-3-3 [2], the Kd was determined as 524 µM.
In turn, Ac-LIDLPLIDFCDTPEAHY [GTSE1] gave an IC50 on CLTC of 97 µM.
Molecule Ac-NEPTTPSWLADIPPWVP-NH2 [MAP1A] came in with a concentration for half-maximal inhibition (IC50) at SFN 14-3-3 [3] of 1.97 mM.
Take Ac-YKCKRQRQDQTLELVGL-NH2 [NKX2-5 Wt]: the Ki on KPNA4 ARM [4] is 6.8 µM. Also, the “NLS function: localization of the GFP-based NLS sensor fused to the peptide” value with HEK293 cells is “nuclear localization”.
On to Ac-YKCRRQRQDQTLELVGL-NH2 [NKX2-5 K194R], for which the IC50 at KPNA4 ARM [4] (FP competition with FITC-Myc320-328 probe for the major pocket, 50 mM KPO4 pH 7.5, n = 3 technical replicates) amounted to 98 µM. Also, the “loss of affinity of KPNA4 binding, mutant versus wild-type” value at KPNA4 ARM [4] (FP competition with FITC-Myc probe, K194R versus wild-type) amounted to 10 fold. Further, the “NLS function: localization of the GFP-based NLS sensor fused to the peptide” value with HEK293 cells is given as “cytoplasmic localization”.
The molecule Ac-YVSGNLIDLCGNQGLP [MITF Y265C] returned a 50% inhibitory concentration (IC50) on CLTC of 220 µM.
Take Ac-YVSGNLIDLYGNQGLP [MITF]: the 50% inhibitory concentration (IC50) at CLTC worked out at 150 µM.
Consider THFAELWGHLDHTMFF [RNF115], for which the IC50 at MDM2 SWIB was 9 µM. The molecule further displayed an inhibitory constant (Ki) at MDM2 SWIB (Fig 3C, FP competition with FITC-p53 probe, triplicates) of 174 nM.
For TPEDDRSFQTVWATVF [KIAA1671], at MDM2 SWIB, the IC50 came to 73 µM. That is a double-digit micromolar value.
In turn, “{FITC}-PAAKRVKLD [Myc, FITC-labeled Myc 320-328 probe for the KPNA4 major pocket]” yielded a dissociation constant (Kd) at KPNA4 ARM [1] (direct binding of FITC-labeled probe, saturation with KPNA4 ARM) of 30 nM.
